From US20060134068A1, “Treatment of cancer by simultaneous inhibiton of BRAF and restoration or mimicry of p16INK4A activity” (Mount Sinai School of Medicine of New York University, priority 2004, published 2006)

Experiments:
[1] = test system: mBRAF positive melanoma cells; settings: mice, Collisson et al. 2003; cited from earlier work
[2] = test system: 624Mel, WM35, A375, and Mel1363 cells; experiment: Preliminary chemotherapeutic treatment, daily cell counting and colony formation; type: cell-based; settings: after 6-24 hr treatment, both concentrations
[3] = test system: untreated, advanced, melanoma; settings: 17 patients, treatment for a median of about 3 months; cited from earlier work
[4] = target: CDK4 (Homo sapiens, UniProt P11802); settings: Kubo et al. 1999; cited from earlier work
Chain of CDK4 (P11802 whole entry, species assumed): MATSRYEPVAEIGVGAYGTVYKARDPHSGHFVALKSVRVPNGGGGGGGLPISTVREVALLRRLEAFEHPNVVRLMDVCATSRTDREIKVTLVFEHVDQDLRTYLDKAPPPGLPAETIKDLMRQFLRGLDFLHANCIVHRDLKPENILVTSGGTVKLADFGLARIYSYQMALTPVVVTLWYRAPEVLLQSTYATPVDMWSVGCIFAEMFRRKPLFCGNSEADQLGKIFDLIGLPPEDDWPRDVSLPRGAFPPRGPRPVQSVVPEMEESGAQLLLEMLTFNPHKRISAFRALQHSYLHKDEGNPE
Chain of CDK4 (P24385 whole entry partner, species assumed): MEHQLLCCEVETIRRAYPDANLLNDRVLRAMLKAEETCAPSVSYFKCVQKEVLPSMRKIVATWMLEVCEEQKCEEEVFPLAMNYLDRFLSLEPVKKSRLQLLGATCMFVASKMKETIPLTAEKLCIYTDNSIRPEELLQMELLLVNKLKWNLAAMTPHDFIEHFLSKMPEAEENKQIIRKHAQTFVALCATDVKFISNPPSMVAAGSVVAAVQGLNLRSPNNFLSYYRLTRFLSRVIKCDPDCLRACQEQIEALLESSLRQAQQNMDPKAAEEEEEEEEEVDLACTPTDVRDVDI

Question: Which pulmonary metastases [1] does the source give for `O=C(NOCC1CC1)c1ccc(F)c(F)c1Nc1ccc(I)cc1Cl` [CI 1040] here?
Answer: Its pulmonary metastases is “suppressed”.

Question: Which growth inhibition [2] does the source give for `N.N.[Cl][Pt][Cl]` [cisplatin] here?
Answer: Its growth inhibition is “Growth inhibition was observed”.

Question: For `CN1CC[C@H](c2c(O)cc(O)c3c(=O)cc(-c4ccccc4Cl)oc23)[C@H](O)C1` [flavopiridol], which clinical response [3] is on record?
Answer: The clinical response was “no response”.

Question: And the “inhibition of CDK4 activity, rank among the compounds” value [4]?
Answer: The value was “most potent inhibitor”.

Question: For `CC(=O)O[C@H]1C(=O)[C@@]2(C)[C@H]([C@H](OC(=O)c3ccccc3)[C@]3(O)C[C@H](OC(=O)[C@H](O)[C@@H](NC(=O)c4ccccc4)c4ccccc4)C(C)=C1C3(C)C)[C@]1(OC(C)=O)CO[C@@H]1C[C@@H]2O` [taxol], which growth inhibition [2] is on record?
Answer: The growth inhibition was “Growth inhibition was observed”.
